# Patent US20070004735A1, “Method for inhibiting the replication of herpes viruses” (priority 2003, published 2007)
# Experiments:
# [1] = tested on: Human cytomegalovirus (HCMV); assay: Anti-HCMV cytopathogenicity test; format: cell-based; conditions: for IC50: Human betaherpesvirus 5, 144 h, NHDF cells, 6 days, cytopathogenic effect, read-out: IC50, antiviral activity in vitro; for SI (selectivity index): antiviral activity in vitro
# Procedure: Human cytomegalovirus (HCMV), DavisSmith (ATCC VR807) or AD169 (ATCC VR538) strain, is grown in vitro on human embryonic prepuce fibroblasts (NHDF cells). After the NHDF cells have been infected with a multiplicity of infection (M.O.I.) of 0.01, the virus-infected cells are harvested 5-10 days later and stored in the presence of minimal essential medium (MEM), 10% fetal calf serum (FCS) with 10% DMSO at −80° C. A cell-free stock is produced by removing only the cell culture supernatant and immediately freezing at −80° C. After serial ten-fold dilutions of the virus-infected cells or of the cell culture supernatant of the virus-infected cells (cell-free virus), the titer is determined on 24-well plates of confluent NHDF cells after vital staining with neutral red.
# (§1) The test compounds are employed as 50 millimolar (mM) solutions in dimethyl sulfoxide (DMSO). Ganciclovir®, Foscarnet® and Cidofovir® are used as reference compounds. After addition of in each case 2 μl of the 50, 5, 0.5 and 0.05 mM DMSO stock solutions to 98 μl portions of cell culture medium in row 2 A-H for duplicate determinations, 1:2 dilutions are carried out with 50 μl portions of medium up to row 11 of the 96-well plate. The wells in rows 1 and 12 each contain 50 μl of medium. 150 μl of a suspension of 1×10^4 cells (human prepuce fibroblasts [NHDF]) are then pipetted into each of the wells (row 1=cell control) and, in rows 2-12, a mixture of HCMV-infected and uninfected NHDF cells (M.O.I.=0.001-0.002), i.e. 1-2 infected cells per 1000 uninfected cells. Row 12 (without substance) serves as virus control. The final test concentrations are 250-0.0005 μM. The plates are incubated at 37° C./5% CO2 for 6 days, i.e. until all the cells are infected in the virus controls (100% cytopathogenic effect [CPE]). The wells are then fixed and stained by adding a mixture of formalin and Giemsa's dye (30 minutes), washed with double-distilled water and dried in a drying oven at 50° C. The plates are then assessed visually using an overhead microscope (plaque multiplier from Technomara).
# wild-type HCMV AD169 = assay: Susceptibility (IC50) of HCMV AD169 wild-type; format: cell-based, Human cytomegalovirus; conditions: Human betaherpesvirus 5, NHDF cells, read-out: IC 50, Wild-type
# Procedure: as §1
# (§2) For this purpose, NHDF cells are seeded in tissue culture vessels. 5×10^3 cells per well are seeded in 96-well plates and infected with cell-free HCMV AD169 with an moi of 0.03. The infections are cultivated under substance pressure which corresponds to 10 times the IC50 of the substance. Preferably, 30-100 96-well plates inoculated as described are made up. […] Finally, viral stocks are produced as described above and frozen. Serial ten-fold dilution of the virus-infected cells or of the cell culture supernatant of the virus-infected cells is followed by determination of the titer on 24-well plates of confluent NHDF cells after vital staining with neutral red. Finally, the susceptibility to various substances (IC50 determination) is determined as described above.
# (§3) The HCMVAD169 mutants selected as described above are grown in vitro on human embryonic prepuce fibroblasts (NHDF cells) under substance pressure (10×IC50 HCMVAD169). After infection of the NHDF cells with a multiplicity of infection (M.O.I) of 0.01, the virus-infected cells are harvested 5-10 days later, and the total DNA is isolated from these cells with the aid of established standard methods (e.g. phenol extraction and ethanol precipitation). Qiagen Sequencing Services (Qiagen, Hilden) determined, after amplification of the viral UL86 gene by PCR, the DNA sequence, which was then transcribed into protein sequence. Compared with the initial strain HCMV AD169, the differences shown in table 2 were detectable in the protein sequence of the major capsid protein (UL86) in the resistant viruses. The IC50 values [μM] of various substances on these mutants compared with the initial strain are likewise indicated. (n.d.=not measured). […] Depending on the nature of the substance, certain mutations lead to various extents of resistance.
# [2] = tested on: HCMV AD169 clone with mutation in UL86 R435C; assay: Susceptibility (IC50) of resistant HCMV AD169 clone R435C; format: cell-based, Human cytomegalovirus; conditions: Human betaherpesvirus 5, read-out: IC 50, R435C
# Procedure: as §1, §2, §3
# [3] = tested on: HCMV AD169 clone with mutation in UL86 D441N; assay: Susceptibility (IC50) of resistant HCMV AD169 clone D441N; format: cell-based, Human cytomegalovirus; conditions: Human betaherpesvirus 5, read-out: IC 50, D441N
# Procedure: as §1, §2, §3
# [4] = tested on: HCMV AD169 clone with mutation in UL86 D563N; assay: Susceptibility (IC50) of resistant HCMV AD169 clone D563N; format: cell-based, Human cytomegalovirus; conditions: Human betaherpesvirus 5, read-out: IC 50, D563N
# Procedure: as §1, §2, §3
# [5] = tested on: HCMV AD169 clone with mutation in UL86 P586T; assay: Susceptibility (IC50) of resistant HCMV AD169 clone P586T; format: cell-based, Human cytomegalovirus; conditions: Human betaherpesvirus 5, read-out: IC 50, P586T
# Procedure: as §1, §2, §3
# [6] = tested on: HCMV AD169 clone with mutation in UL86 V601M; assay: Susceptibility (IC50) of resistant HCMV AD169 clone V601M; format: cell-based, Human cytomegalovirus; conditions: Human betaherpesvirus 5, read-out: IC 50, V601M
# Procedure: as §1, §2, §3
# [7] = tested on: HCMV AD169 clone with mutation in UL86 R682H; assay: Susceptibility (IC50) of resistant HCMV AD169 clone R682H; format: cell-based, Human cytomegalovirus; conditions: Human betaherpesvirus 5, read-out: IC 50, R682H
# Procedure: as §1, §2, §3
# [8] = tested on: HCMV AD169 clone with mutation in UL86 A689T; assay: Susceptibility (IC50) of resistant HCMV AD169 clone A689T; format: cell-based, Human cytomegalovirus; conditions: Human betaherpesvirus 5, read-out: IC 50, A689T
# Procedure: as §1, §2, §3
# [9] = tested on: HCMV AD169 clone with mutation in UL86 P1189T; assay: Susceptibility (IC50) of resistant HCMV AD169 clone P1189T; format: cell-based, Human cytomegalovirus; conditions: Human betaherpesvirus 5, read-out: IC 50, P1189T
# Procedure: as §1, §2, §3
# [10] = tested on: HCMV AD169 clone with mutation in UL86 Q1223R; assay: Susceptibility (IC50) of resistant HCMV AD169 clone Q1223R; format: cell-based, Human cytomegalovirus; conditions: Human betaherpesvirus 5, read-out: IC 50, Q1223R
# Procedure: as §1, §2, §3
# [11] = tested on: HCMV AD169 clone with mutation in UL86 A1226T; assay: Susceptibility (IC50) of resistant HCMV AD169 clone A1226T; format: cell-based, Human cytomegalovirus; conditions: Human betaherpesvirus 5, read-out: IC 50, A1226T
# Procedure: as §1, §2, §3
# [12] = tested on: HCMV AD169 clone with mutation in UL86 E1320Q; assay: Susceptibility (IC50) of resistant HCMV AD169 clone E1320Q; format: cell-based, Human cytomegalovirus; conditions: Human betaherpesvirus 5, read-out: IC 50, E1320Q
# Procedure: as §1, §2, §3
# [13] = tested on: HCMV AD169 clone with mutation in UL86 K1338N; assay: Susceptibility (IC50) of resistant HCMV AD169 clone K1338N; format: cell-based, Human cytomegalovirus; conditions: Human betaherpesvirus 5, read-out: IC 50, K1338N
# Procedure: as §1, §2, §3
structure (smiles),measurement,setting,value
"CC(=O)Nc1ccc(NC(=O)Nc2ccc(F)c(Cl)c2)cc1 [Example 3, N-[4-({[(3-Chloro-4-fluorophenyl)amino]carbonyl}amino)phenyl]acetamide]",IC50,[1],0.5 µM
same,SI (selectivity index),[1],40
same,IC50,wild-type HCMV AD169,0.5 µM
same,IC50,[2],> 20 µM
same,IC50,[3],> 20 µM
same,IC50,[4],> 20 µM
same,IC50,[5],> 20 µM
same,IC50,[6],> 20 µM
same,IC50,[7],> 20 µM
same,IC50,[8],> 20 µM
same,IC50,[9],> 20 µM
same,IC50,[10],> 20 µM
same,IC50,[11],> 20 µM
same,IC50,[12],> 20 µM
same,IC50,[13],> 20 µM
"CCCCS(=O)(=O)Nc1cccc(NC(=O)Nc2ccc(F)c(Cl)c2)c1 [Example 5, N-[3-({[(3-Chloro-4-fluorophenyl)amino]carbonyl}amino)phenyl]-1-butanesulfonamide]",IC50,[1],0.14 µM
same,SI (selectivity index),[1],70
same,IC50,wild-type HCMV AD169,0.14 µM
same,IC50,[2],6 µM
same,IC50,[4],1.4 µM
same,IC50,[5],0.8 µM
same,IC50,[6],1.5 µM
same,IC50,[8],0.4 µM
same,IC50,[10],1.4 µM
same,IC50,[12],9 µM
same,IC50,[13],> 9 µM
"CC(C)n1c(-c2cccc(NC(=O)Nc3ccc(F)c(Cl)c3)c2)n[nH]c1=O [Example 6, 1-(3-Chloro-4-fluorophenyl)-3-[3-(4-isopropyl-5-oxo-4,5-dihydro-1H-[1,2,4]triazol-3-yl)phenyl]urea]",IC50,[1],0.4 µM
same,SI (selectivity index),[1],150
"O=C(Nc1cccc(-c2n[nH]c(=O)n2C2CCCCC2)c1)Nc1ccc(F)c(Cl)c1 [Example 7, 1-(3-Chloro-4-fluorophenyl)-3-[3-(4-cyclohexyl-5-oxo-4,5-dihydro-1H-[1,2,4]triazol-3-yl)phenyl]urea]",IC50,[1],1.5 µM
same,SI (selectivity index),[1],30
same,IC50,wild-type HCMV AD169,1.5 µM
same,IC50,[2],3 µM
same,IC50,[4],15 µM
same,IC50,[5],7.6 µM
same,IC50,[6],12 µM
same,IC50,[8],4.5 µM
same,IC50,[10],12 µM
same,IC50,[12],24 µM
same,IC50,[13],15 µM
"Cc1cc(Cl)ccc1NC(=O)Nc1cccc(C2=NNC(=O)C2(C)C)c1 [Example 8, N-(4-Chloro-2-methylphenyl)-N′-[3-(4,4-dimethyl-5-oxo-4,5-dihydro-1H-pyrazol-3-yl)phenyl]urea]",IC50,[1],0.6 µM
same,SI (selectivity index),[1],30
same,IC50,wild-type HCMV AD169,0.6 µM
same,IC50,[2],1.3 µM
same,IC50,[4],> 21 µM
same,IC50,[5],> 21 µM
same,IC50,[6],> 21 µM
same,IC50,[8],> 21 µM
same,IC50,[10],> 21 µM
same,IC50,[12],> 21 µM
same,IC50,[13],> 21 µM
same,melting point,,226.8 °C
"Nc1nc(O)c2ncn(COC(CO)CO)c2n1 [Ganciclovir, reference compound]",IC50,wild-type HCMV AD169,1 µM
same,IC50,[2],1 µM
same,IC50,[3],1 µM
same,IC50,[4],1 µM
same,IC50,[5],1 µM
same,IC50,[6],1 µM
same,IC50,[7],1 µM
same,IC50,[8],1 µM
same,IC50,[9],1 µM
same,IC50,[10],1 µM
same,IC50,[11],1 µM
same,IC50,[12],1 µM
same,IC50,[13],1 µM
